Source: patent publication US20230398130A1, “METHODS AND COMPOSITIONS FOR DIFFERENTIATING STEM CELLS” (Massachusetts Institute of Technology, priority 2020, published 2023)

Columns and labels:
ISC-enriched organoids [1] = assay: Primary screen, 384-well 2.5-D organoid differentiation (ENR+CD, 6 days): basal lysozyme secretion (LYZ.NS); type: cell-based, murine; settings: for Dose.FC.LYZ.NS: FC vs plate median; for Z.LYZ.NS: standard z score of FC; for Dose.FC.LYZ.NS (log 2 fold change): vs plate median; for SSMD.LYZ.NS: strictly standardized mean difference
Excerpt: (§1) High-throughput screening.

ISC-enriched organoids [2] = assay: Primary screen, 384-well 2.5-D organoid differentiation (ENR+CD, 6 days): carbachol-induced lysozyme secretion (LYZ.S); type: cell-based, murine; settings: for Dose.FC.LYZ.S: FC vs plate median; for Dose.FC.LYZ.S (log 2 fold change): vs plate median; for Z.LYZ.S: standard z score; for SSMD.LYZ.S: strictly standardized mean difference
Excerpt: as §1

ISC-enriched organoids [3] = assay: Primary screen, 384-well 2.5-D organoid differentiation (ENR+CD, 6 days, Target Selective Inhibitor Library, vs whole-plate median): ATP (CellTiter-Glo 3D, CTG); settings: for Dose.FC.CTG: FC vs plate median; for Z.CTG: standard z score of FC; for Dose.FC.CTG (log 2 fold change): vs plate median; for SSMD.CTG: strictly standardized mean difference
[4] = primary screen, dose 0.08 uM, ENR+CD 6 days
[5] = primary screen, dose 0.40 uM, ENR+CD 6 days
[6] = primary screen, dose 2.00 uM, ENR+CD 6 days
[7] = primary screen, dose 10.00 uM, ENR+CD 6 days
[8] = primary screen, 1st of the 4 dose lines of the treatment (dose not given)
[9] = primary screen, 2nd of the 4 dose lines of the treatment (dose not given)
[10] = primary screen, 3rd of the 4 dose lines of the treatment (dose not given)
[11] = primary screen, 4th of the 4 dose lines of the treatment (dose not given)

O=C(Oc1cc(S(=O)(=O)c2ccccc2)ccc1[N+](=O)[O-])c1ccc(Cl)cc1 [BTB06584]
Dose.FC.LYZ.NS (ISC-enriched organoids [1]; [4]): 0.091 log 2 fold change
Z.LYZ.NS (ISC-enriched organoids [1]; primary screen, dose 0.08 uM): 0.795
Dose.FC.LYZ.NS (ISC-enriched organoids [1]; [5]): 0.025 log 2 fold change
Z.LYZ.NS (ISC-enriched organoids [1]; primary screen, dose 0.40 uM): 0.214
Dose.FC.LYZ.NS (ISC-enriched organoids [1]; [6]): 0.024 log 2 fold change
Z.LYZ.NS (ISC-enriched organoids [1]; primary screen, dose 2.00 uM): 0.206
Dose.FC.LYZ.NS (ISC-enriched organoids [1]; [7]): −0.031 log 2 fold change
Z.LYZ.NS (ISC-enriched organoids [1]; primary screen, dose 10.00 uM): −0.268
Dose.FC.LYZ.S (ISC-enriched organoids [2]; [4]): 0.222 log 2 fold change
Dose.FC.LYZ.S (ISC-enriched organoids [2]; [5]): 0.042 log 2 fold change
Dose.FC.LYZ.S (ISC-enriched organoids [2]; [6]): 0.039 log 2 fold change
Dose.FC.LYZ.S (ISC-enriched organoids [2]; [7]): 0.019 log 2 fold change
Dose.FC.CTG (ISC-enriched organoids [3]; [4]): 0.275 log 2 fold change
Z.CTG (ISC-enriched organoids [3]; primary screen, dose 0.08 uM): 0.657
Dose.FC.CTG (ISC-enriched organoids [3]; [5]): 0.288 log 2 fold change
Z.CTG (ISC-enriched organoids [3]; primary screen, dose 0.40 uM): 0.688
Dose.FC.CTG (ISC-enriched organoids [3]; [6]): −0.180 log 2 fold change
Z.CTG (ISC-enriched organoids [3]; primary screen, dose 2.00 uM): −0.431
Dose.FC.CTG (ISC-enriched organoids [3]; [7]): 0.199 log 2 fold change
Z.CTG (ISC-enriched organoids [3]; primary screen, dose 10.00 uM): 0.475

Cc1ccc(S(=O)(=O)NC(=O)NN2CC3CCCC3C2)cc1 (centres unmarked) [Gliclazide]
Dose.FC.LYZ.NS (ISC-enriched organoids [1]; Dose 10.00 uM, ENR+CD, 6 days): −0.035 log 2 fold change
Dose.FC.LYZ.S (ISC-enriched organoids [2]; Dose 10.00 uM, ENR+CD, 6 days): −0.060 log 2 fold change
Z.CTG (ISC-enriched organoids [3]; Dose 0.08 uM): 0.386
Z.CTG (ISC-enriched organoids [3]; Dose 0.40 uM): 0.128
Z.CTG (ISC-enriched organoids [3]; Dose 2.00 uM): 0.020
Dose.FC.CTG (ISC-enriched organoids [3]; Dose 10.00 uM, ENR+CD, 6 days): −0.092 log 2 fold change
Z.CTG (ISC-enriched organoids [3]; Dose 10.00 uM): −0.219

Nc1ccc(C(=O)[O-])c(O)c1.[Na+] [Sodium 4-Aminosalicylate]
Z.LYZ.NS (standard z score) (ISC-enriched organoids [1]; Dose 0.08 uM, primary screen): 0.695
Dose.FC.LYZ.NS (log 2 fold change) (ISC-enriched organoids [1]; Dose 0.08 uM, primary screen): 0.080
Z.LYZ.NS (standard z score) (ISC-enriched organoids [1]; Dose 0.40 uM, primary screen): 0.354
Dose.FC.LYZ.NS (log 2 fold change) (ISC-enriched organoids [1]; Dose 0.40 uM, primary screen): 0.041
Z.LYZ.NS (standard z score) (ISC-enriched organoids [1]; Dose 2.00 uM, primary screen): 1.354
Dose.FC.LYZ.NS (log 2 fold change) (ISC-enriched organoids [1]; Dose 2.00 uM, primary screen): 0.156
Z.LYZ.NS (standard z score) (ISC-enriched organoids [1]; Dose 10.00 uM, primary screen): 0.796
Dose.FC.LYZ.NS (log 2 fold change) (ISC-enriched organoids [1]; Dose 10.00 uM, primary screen): 0.091
Dose.FC.LYZ.S (log 2 fold change) (ISC-enriched organoids [2]; Dose 0.08 uM, primary screen): 0.162
Dose.FC.LYZ.S (log 2 fold change) (ISC-enriched organoids [2]; Dose 0.40 uM, primary screen): 0.050
Dose.FC.LYZ.S (log 2 fold change) (ISC-enriched organoids [2]; Dose 2.00 uM, primary screen): 0.099
Dose.FC.LYZ.S (log 2 fold change) (ISC-enriched organoids [2]; Dose 10.00 uM, primary screen): 0.143
Z.CTG (standard z score) (ISC-enriched organoids [3]; Dose 0.08 uM, primary screen): 0.283
Dose.FC.CTG (log 2 fold change) (ISC-enriched organoids [3]; Dose 0.08 uM, primary screen): 0.119
Z.CTG (standard z score) (ISC-enriched organoids [3]; Dose 0.40 uM, primary screen): 0.488
Dose.FC.CTG (log 2 fold change) (ISC-enriched organoids [3]; Dose 0.40 uM, primary screen): 0.204
Z.CTG (standard z score) (ISC-enriched organoids [3]; Dose 2.00 uM, primary screen): 0.092
Dose.FC.CTG (log 2 fold change) (ISC-enriched organoids [3]; Dose 2.00 uM, primary screen): 0.038
Z.CTG (standard z score) (ISC-enriched organoids [3]; Dose 10.00 uM, primary screen): 0.590
Dose.FC.CTG (log 2 fold change) (ISC-enriched organoids [3]; Dose 10.00 uM, primary screen): 0.247

COc1ccc(-c2cnc3c(-c4cccc5ncccc45)cnn3c2)cc1 [ML347]
Dose.FC.LYZ.NS (ISC-enriched organoids [1]; Dose 0.08 uM, primary screen): 0.124 log 2 fold change
Z.LYZ.NS (ISC-enriched organoids [1]; Dose 0.08 uM): 1.079
Dose.FC.LYZ.NS (ISC-enriched organoids [1]; Dose 0.40 uM, primary screen): 0.132 log 2 fold change
Z.LYZ.NS (ISC-enriched organoids [1]; Dose 0.40 uM): 1.150
Dose.FC.LYZ.NS (ISC-enriched organoids [1]; Dose 2.00 uM, primary screen): 0.069 log 2 fold change
Z.LYZ.NS (ISC-enriched organoids [1]; Dose 2.00 uM): 0.600
Dose.FC.LYZ.NS (ISC-enriched organoids [1]; Dose 10.00 uM, primary screen): −0.124 log 2 fold change
Z.LYZ.NS (ISC-enriched organoids [1]; Dose 10.00 uM): −1.078
SSMD.LYZ.NS (ISC-enriched organoids [1]; [8]): 1.159
SSMD.LYZ.NS (ISC-enriched organoids [1]; [9]): 1.286
SSMD.LYZ.NS (ISC-enriched organoids [1]; [10]): 0.509
SSMD.LYZ.NS (ISC-enriched organoids [1]; [11]): −0.643
Dose.FC.LYZ.S (ISC-enriched organoids [2]; Dose 0.08 uM, primary screen): 0.094 log 2 fold change
Dose.FC.LYZ.S (ISC-enriched organoids [2]; Dose 0.40 uM, primary screen): 0.111 log 2 fold change
Dose.FC.LYZ.S (ISC-enriched organoids [2]; Dose 2.00 uM, primary screen): 0.072 log 2 fold change
Dose.FC.LYZ.S (ISC-enriched organoids [2]; Dose 10.00 uM, primary screen): −0.202 log 2 fold change
Z.LYZ.S (ISC-enriched organoids [2]; [8]): 0.608
Z.LYZ.S (ISC-enriched organoids [2]; [9]): 0.715
Z.LYZ.S (ISC-enriched organoids [2]; [10]): 0.467
Z.LYZ.S (ISC-enriched organoids [2]; [11]): −1.303
SSMD.LYZ.S (ISC-enriched organoids [2]; [8]): 0.546
SSMD.LYZ.S (ISC-enriched organoids [2]; [9]): 0.729
SSMD.LYZ.S (ISC-enriched organoids [2]; [10]): 0.450
SSMD.LYZ.S (ISC-enriched organoids [2]; [11]): −1.245
Dose.FC.CTG (ISC-enriched organoids [3]; Dose 0.08 uM, primary screen): 0.184 log 2 fold change
Z.CTG (ISC-enriched organoids [3]; Dose 0.08 uM): 0.439
Dose.FC.CTG (ISC-enriched organoids [3]; Dose 0.40 uM, primary screen): 0.209 log 2 fold change
Z.CTG (ISC-enriched organoids [3]; Dose 0.40 uM): 0.500
Dose.FC.CTG (ISC-enriched organoids [3]; Dose 2.00 uM, primary screen): 0.137 log 2 fold change
Z.CTG (ISC-enriched organoids [3]; Dose 2.00 uM): 0.328
Dose.FC.CTG (ISC-enriched organoids [3]; Dose 10.00 uM, primary screen): −0.169 log 2 fold change
Z.CTG (ISC-enriched organoids [3]; Dose 10.00 uM): −0.404
SSMD.CTG (ISC-enriched organoids [3]; [8]): 0.464
SSMD.CTG (ISC-enriched organoids [3]; [9]): 0.557
SSMD.CTG (ISC-enriched organoids [3]; [10]): 0.403
SSMD.CTG (ISC-enriched organoids [3]; [11]): −0.307
